# According to article PMC9127186, “Molecular Basis Underlying Hepatobiliary and Renal Excretion of Phenolic Acids of Salvia miltiorrhiza Roots (Danshen)” (Frontiers in Pharmacology, 2022):
# Columns and labels:
# human OAT2 = target: T1, human OAT2 (Homo sapiens, UniProt Q9Y694); test: Cellular transport assay, HEK-293 cells expressing human OAT2; conditions: for TransportTC/TransportMC ratio (net transport ratio): 10 min; for K m: human hepatic sinusoidal uptake OAT2 (also renal basolateral), 5 min incubation, concentrations in Table 1
# T1 sequence (Q9Y694 1-546 isoform Q9Y694-2): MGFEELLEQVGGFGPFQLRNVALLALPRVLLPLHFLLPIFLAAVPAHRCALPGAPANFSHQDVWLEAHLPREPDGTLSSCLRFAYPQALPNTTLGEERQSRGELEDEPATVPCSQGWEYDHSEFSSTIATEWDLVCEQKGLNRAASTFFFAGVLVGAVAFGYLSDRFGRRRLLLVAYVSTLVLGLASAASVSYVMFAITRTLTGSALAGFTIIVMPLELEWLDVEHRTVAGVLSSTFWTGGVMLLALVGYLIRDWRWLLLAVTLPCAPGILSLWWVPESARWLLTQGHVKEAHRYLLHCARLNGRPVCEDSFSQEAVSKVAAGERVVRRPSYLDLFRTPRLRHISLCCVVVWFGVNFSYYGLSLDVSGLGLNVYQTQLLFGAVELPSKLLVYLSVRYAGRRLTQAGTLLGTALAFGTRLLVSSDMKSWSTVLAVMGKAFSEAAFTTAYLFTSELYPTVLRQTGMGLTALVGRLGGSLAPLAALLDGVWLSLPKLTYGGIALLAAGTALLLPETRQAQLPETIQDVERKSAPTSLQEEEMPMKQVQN
# In short: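 First, HEK-293 cells received either the expression plasmid or empty vector by lipofection; 48 h later they were incubated with test compound for 5 min.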
# rat Oatp1b2 = target: T2, rat Oatp1b2 (Rattus norvegicus, UniProt Q9QZX8); test: Cellular transport assay, HEK-293 cells expressing rat Oatp1b2; conditions: for TransportTC/TransportMC ratio (net transport ratio): 10 min
# T2 sequence (Q9QZX8 1-687): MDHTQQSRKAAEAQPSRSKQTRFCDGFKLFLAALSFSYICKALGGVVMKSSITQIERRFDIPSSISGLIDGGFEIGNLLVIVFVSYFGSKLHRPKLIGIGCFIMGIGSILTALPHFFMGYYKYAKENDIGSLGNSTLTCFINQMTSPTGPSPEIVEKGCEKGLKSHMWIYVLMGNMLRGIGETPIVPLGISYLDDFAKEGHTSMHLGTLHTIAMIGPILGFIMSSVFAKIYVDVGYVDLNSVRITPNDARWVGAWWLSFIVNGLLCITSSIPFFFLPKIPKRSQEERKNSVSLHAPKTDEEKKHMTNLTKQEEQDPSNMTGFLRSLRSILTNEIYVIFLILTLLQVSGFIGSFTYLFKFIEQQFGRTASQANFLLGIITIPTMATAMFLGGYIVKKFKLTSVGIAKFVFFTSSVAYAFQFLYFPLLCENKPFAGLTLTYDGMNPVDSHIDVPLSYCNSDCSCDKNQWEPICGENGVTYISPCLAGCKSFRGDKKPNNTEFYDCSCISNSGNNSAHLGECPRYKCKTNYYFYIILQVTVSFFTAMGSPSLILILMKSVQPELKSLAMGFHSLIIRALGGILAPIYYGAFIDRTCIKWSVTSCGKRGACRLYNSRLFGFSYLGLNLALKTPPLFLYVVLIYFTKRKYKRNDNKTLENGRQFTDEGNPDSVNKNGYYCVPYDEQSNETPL
# rat Oat2 = target: T3, rat Oat2 (Rattus norvegicus, UniProt Q5RLM2); test: Cellular transport assay, HEK-293 cells expressing rat Oat2; conditions: for TransportTC/TransportMC ratio (net transport ratio): 10 min; for K m: rat hepatic sinusoidal uptake Oat2 (also renal apical), 5 min incubation, concentrations in Table 1
# T3 sequence (Q5RLM2 1-535): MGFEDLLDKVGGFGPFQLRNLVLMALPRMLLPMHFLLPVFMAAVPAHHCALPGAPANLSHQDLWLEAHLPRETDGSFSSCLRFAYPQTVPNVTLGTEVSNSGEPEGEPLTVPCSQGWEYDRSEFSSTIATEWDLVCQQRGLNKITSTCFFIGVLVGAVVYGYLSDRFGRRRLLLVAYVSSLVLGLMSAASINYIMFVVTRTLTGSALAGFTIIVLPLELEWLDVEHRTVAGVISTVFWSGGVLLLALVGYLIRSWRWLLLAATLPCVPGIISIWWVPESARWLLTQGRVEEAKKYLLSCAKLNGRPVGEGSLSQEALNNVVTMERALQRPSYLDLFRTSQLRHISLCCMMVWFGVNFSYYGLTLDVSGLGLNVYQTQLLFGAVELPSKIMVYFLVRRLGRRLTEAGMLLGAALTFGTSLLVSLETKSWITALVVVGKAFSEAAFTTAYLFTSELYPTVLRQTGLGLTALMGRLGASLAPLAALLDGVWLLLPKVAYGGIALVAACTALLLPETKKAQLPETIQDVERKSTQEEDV
# [1] = Danshen phenolic acid at 100 μM final concentration, human OAT2-transfected vs mock cells
# [2] = Danshen phenolic acid at 100 μM final concentration, rat Oatp1b2-transfected vs mock cells
# [3] = rat hepatic sinusoidal uptake Oatp1b2, 5 min incubation, concentrations in Table 1
# [4] = Danshen phenolic acid at 100 μM final concentration, rat Oat2-transfected vs mock cells
Compound,substrate of human OAT2 (human OAT2),TransportTC/TransportMC ratio (net transport ratio) (human OAT2; [1]),microsomal CLint (human OAT2; human) [µL/min/mg],K m (human OAT2),substrate of rat Oatp1b2 (rat Oatp1b2),TransportTC/TransportMC ratio (net transport ratio) (rat Oatp1b2; [2]),microsomal CLint (rat Oatp1b2; rat) [µL/min/mg],K m (rat Oatp1b2; [3]) [µM],substrate of rat Oat2 (rat Oat2),TransportTC/TransportMC ratio (net transport ratio) (rat Oat2; [4]),microsomal CLint (rat Oat2; rat) [µL/min/mg],K m (rat Oat2) [µM],CLint (rat Oatp1b2; rat hepatic sinusoidal uptake Oatp1b2) [μL/min/mg protein],V max (rat Oatp1b2; [3]) [pmol/min/mg protein],"TransportTC/TransportMC ratio (net transport ratio) (human OAT2; human, 100 μM)","TransportTC/TransportMC ratio (net transport ratio) (rat Oatp1b2; rat, 100 μM)","microsomal CLint (rat Oatp1b2; rat, other cell line) [µL/min/mg]","TransportTC/TransportMC ratio (net transport ratio) (rat Oat2; rat, 100 μM)","microsomal CLint (human OAT2; human, other cell line) [µL/min/mg]","microsomal CLint (rat Oat2; rat, other cell line) [µL/min/mg]"
"O=C(O)Cc1c(/C=C/C(=O)O[C@H](Cc2ccc(O)c(O)c2)C(=O)O)ccc(O)c1O [Salvianolic acid D, salvianolic acid D]",substrates,314 ± 44,24.3,111 ± 13 µM,substrates,16.0 ± 0.8,1.23,464 ± 62,substrates,50.5 ± 10.7,2.73,60.0 ± 7.2,,,,,,,,
"O=C(O)C(O)Cc1ccc(O)c(O)c1 (stereo not drawn) [Tanshinol, tanshinol]",,,,"1,228 ± 160 μM",,,,,,,,978 ± 123,,,,,,,,
"O=C(/C=C/c1ccc(O)c2c1[C@H](C(=O)O)[C@@H](c1ccc(O)c(O)c1)O2)O[C@H](Cc1ccc(O)c(O)c1)C(=O)O [Lithospermic acid, lithospermic acid]",,1.51 ± 0.27,,,substrates,11.6 ± 0.7,0.41,91.3 ± 10.6,,1.36 ± 0.33,,,,,,,,,,
salvianolic acid B,,1.04 ± 0.09,,,substrates,30.0 ± 0.6,,20.5 ± 1.9,,0.92 ± 0.22,,,0.87,17.7 ± 0.5,,,,,,
"O=C(O)c1ccc(O)c(O)c1 [Protocatechuic acid, protocatechuic acid]",substrates,417 ± 23,20.7,185 ± 24 µM,neither protocatechuic acid nor tanshinol was a substrate,1.32 ± 0.45,,,substrates,163 ± 30,10.9,109 ± 6,,,,,,,,
"O=C(/C=C/c1ccc(O)c(O)c1/C=C/c1ccc(O)c(O)c1)O[C@H](Cc1ccc(O)c(O)c1)C(=O)O [Salvianolic acid A, salvianolic acid A]",not a substrate,,,,substrate,,,50.5 ± 12.8,not substrates,,,,,,2.25 ± 0.47,7.52 ± 1.31,0.38,1.41 ± 0.26,,
"O=C(/C=C/c1ccc(O)c(O)c1)O[C@H](Cc1ccc(O)c(O)c1)C(=O)O [Rosmarinic acid, rosmarinic acid]",substrates,,,48.6 ± 4.2 µM,substrates,,,2049 ± 418,substrates,,,119 ± 15,,,716 ± 86,17.0 ± 2.8,0.08,334 ± 18,19.1,5.2
